Reference: US20230146455A1, “TREATMENT OF INFLAMMATORY DISEASES WITH PEPTIDES AND PHARMACEUTICAL COMPOSITIONS” (Yuyu Pharma, Inc., priority 2020, published 2023)
“And” between values parts separate entries of the source, which are not always exact repeats. Identical values can stand only once. Where a SMILES comes first, the peptide text is derived from it. [ ]: non-standard residue; d: D form. Hyp = O=C(O)[C@@H]1C[C@@H](O)CN1

Test system: IL-1 alpha/IL-1F1
Experiment: Example 8 main study Luminex, LPS hPBMCs: IL-1 alpha/IL-1F1
Format: cell-based, human
Experimental: Human PBMCs were pretreated with YY-101, YDE-011, YDE-043 or reference compound; Xiidra® at various concentration (ranging from […] to 500 nM) for 2 h before stimulation. An equal volume of 0.5% DMSO was used as a vehicle control. Then, the cells were treated with LPS at 5 ug/ml, which was selected based on the pilot study. The supernatants from treated cells were harvested at 24 h and placed in a 96 well for Luminex cytokine & chemokine profiling using a Luminex 200 multiplex assay (Luminex; R&D system, USA).
The main study arm with triplicate wells per group in a 24-well plate: • 1. Blank • 2. PBMC: 0.5% DMSO • 3. PBMC+LPS (5 ug/ml) • 4. PBMC+YY-101 500 nM • 5. PBMC+YY-101 50 nM • 6. PBMC+YY-101 5 nM • 7. PBMC+YY-101 0.5 nM • 8. PBMC+LPS (5 ug/ml)+Xiidra® 500 nM • 9. PBMC+LPS (5 ug/ml)+Xiidra® 50 nM • 10. PBMC+LPS (5 ug/ml)+Xiidra® 5 nM • 11. PBMC+LPS (5 ug/ml)+Xiidra® 0.5 nM • 12. PBMC+LPS (5 ug/ml)+Xiidra® 0.05 nM • 13. PBMC+LPS (5 ug/ml)+Xiidra® 0.005 nM • 14. PBMC+LPS (5 ug/ml)+YY-101 500 nM • 15. PBMC+LPS (5 ug/ml)+YY-101 50 nM • 16. PBMC+LPS (5 ug/ml)+YY-101 5 nM • 17. PBMC+LPS (5 ug/ml)+YY-101 0.5 nM • 18. PBMC+LPS (5 ug/ml)+YY-101 0.05 nM • 19. PBMC+LPS (5 ug/ml)+YY-101 0.005 nM • 20. PBMC+LPS (5 ug/ml)+YDE-011 500 nM • 21. PBMC+LPS (5 ug/ml)+YDE-011 50 nM • 22. PBMC+LPS (5 ug/ml)+YDE-011 5 nM • 23. PBMC+LPS (5 ug/ml)+YDE-011 0.5 nM • 24. PBMC+LPS (5 ug/ml)+YDE-011 0.05 nM • 25. PBMC+LPS (5 ug/ml)+YDE-011 0.005 nM • 26. PBMC+LPS (5 ug/ml)+YDE-043 500 nM • 27. PBMC+LPS (5 ug/ml)+YDE-043 50 nM • 28. PBMC+LPS (5 ug/ml)+YDE-043 5 nM • 29. PBMC+LPS (5 ug/ml)+YDE-043 0.5 nM • 30. PBMC+LPS (5 ug/ml)+YDE-043 0.05 nM • 31. PBMC+LPS (5 ug/ml)+YDE-043 0.005 nM
Multiplex assay was used to measure 30 cytokines and chemokines. The 1:200 diluted cell supernatant and serial dilution of the standard were dispensed into a 96 well plate at 50 ul/well. Then, the pre-mixed cocktail of antibody-coated magnetic beads was dispensed at 50 ul/well and incubated at room temperature for 2 h in a horizontal orbital microplate shaker at 800±500 rpm. The beads were washed using a magnetic device to prevent loss. The biotin-antibody was dispensed in 50 ul of each well and incubated at room temperature for 1 h in a shaker at 800±500 rpm. After washing, streptavidin-PE was added at 50 ul/well and incubated at room temperature for 30 min in a shaker under the same conditions. Finally, after washing, wash buffer (100 ul/well) was added to the plate and incubated in a shaker for 2 min. The Luminex™ 200 setting were set according to the manufacturer's protocol. The data was calculated with a standard five-parameter logistic nonlinear regression analysis of the data (xPonent software 4.2, USA). Results were presented as concentration (ng/ml or pg/ml).

[1] = PBMC + LPS(5 ug/ml) + test article 0.005 nM, Mean
[2] = PBMC + LPS(5 ug/ml) + test article 0.005 nM, individual replicates
[3] = PBMC + LPS(5 ug/ml) + test article 0.05 nM, Mean
[4] = PBMC + LPS(5 ug/ml) + test article 0.05 nM, individual replicates
[5] = PBMC + LPS(5 ug/ml) + test article 0.5 nM, Mean
[6] = PBMC + LPS(5 ug/ml) + test article 0.5 nM, individual replicates
[7] = PBMC + LPS(5 ug/ml) + test article 5 nM, Mean
[8] = PBMC + LPS(5 ug/ml) + test article 5 nM, individual replicates
[9] = PBMC + LPS(5 ug/ml) + test article 50 nM, Mean
[10] = PBMC + LPS(5 ug/ml) + test article 50 nM, individual replicates
[11] = PBMC + LPS(5 ug/ml) + test article 500 nM, Mean
[12] = PBMC + LPS(5 ug/ml) + test article 500 nM, individual replicates

CC(C)C[C@H](NC(=O)CNC(=O)[C@H](CC(C)C)NC(=O)[C@H](CCC(N)=O)NC(=O)CNC(=O)[C@@H]1C[C@@H](O)CN1)C(=O)N[C@@H](C)C(=O)NCC(=O)N1CCC[C@H]1C(=O)N[C@@H](CCCCN)C(=O)O [YDE-011] (H-[Hyp]GQLGLAGPK-OH)
IL-1 alpha/IL-1F1 Concentration [1]: 510.2 pg/mL | IL-1 alpha/IL-1F1 MFI [1]: 31.2 | IL-1 alpha/IL-1F1 Concentration [2]: 595.1 pg/mL and 460.1 pg/mL and 475.3 pg/mL | IL-1 alpha/IL-1F1 MFI [2]: 34.0 and 29.5 and 30.0 | IL-1 alpha/IL-1F1 Concentration [3]: 510.3 pg/mL | IL-1 alpha/IL-1F1 MFI [3]: 31.2 | IL-1 alpha/IL-1F1 Concentration [4]: 535.6 pg/mL and 550.5 pg/mL and 444.9 pg/mL | IL-1 alpha/IL-1F1 MFI [4]: 32.0 and 32.5 and 29.0 | IL-1 alpha/IL-1F1 Concentration [5]: 403.8 pg/mL | IL-1 alpha/IL-1F1 MFI [5]: 27.7 | IL-1 alpha/IL-1F1 Concentration [6]: 429.6 pg/mL and 383.2 pg/mL and 398.7 pg/mL | IL-1 alpha/IL-1F1 MFI [6]: 28.5 and 27.0 and 27.5 | IL-1 alpha/IL-1F1 Concentration [7]: 324.6 pg/mL | IL-1 alpha/IL-1F1 MFI [7]: 25.2 | IL-1 alpha/IL-1F1 Concentration [8]: 256.0 pg/mL and 288.4 pg/mL and 429.6 pg/mL | IL-1 alpha/IL-1F1 MFI [8]: 23.0 and 24.0 and 28.5 | IL-1 alpha/IL-1F1 Concentration [9]: 278.0 pg/mL | IL-1 alpha/IL-1F1 MFI [9]: 23.8 | IL-1 alpha/IL-1F1 Concentration [10]: 320.3 pg/mL and 84.2 pg/mL and 429.6 pg/mL | IL-1 alpha/IL-1F1 MFI [10]: 25.0 and 18.0 and 28.5 | IL-1 alpha/IL-1F1 Concentration [11]: 275.3 pg/mL | IL-1 alpha/IL-1F1 MFI [11]: 24.0 | IL-1 alpha/IL-1F1 Concentration [12]: 535.6 pg/mL and 1.9 pg/mL and 288.4 pg/mL | IL-1 alpha/IL-1F1 MFI [12]: 32.0 and 16.0 and 24.0
